Values of other authors in article PMC8400941, “Preclinical Toxicity and Safety of MM-129—First-in-Class BTK/PD-L1 Inhibitor as a Potential Candidate against Colon Cancer” (Pharmaceutics, 2021).

Legend:
patients = details: chemotherapy regimens used in CRC; cited from earlier work
[1] = set-up: method as in PMID 24079553; details: cited from earlier work
BFU-E growth = system: BFU-E growth; set-up: method as in PMID 17318617; details: multiple administration, 350 mg/kg/day, transient; cited from earlier work
zebrafish embryos/larvae = details: 5 μM; cited from earlier work

Compound: O=c1[nH]cc(F)c(=O)[nH]1 [5-FU, 5-fluorouracil]
- patients with hepatotoxicity (patients): up to 47%

Compound: CC[C@H](CO)Nc1nc(NCc2ccc(-c3ccccn3)cc2)c2ncn(C(C)C)c2n1 [CR8]
- elimination half-life [1]: about 3 h

Compound: CC[C@H](CO)Nc1nc(NCc2ccccc2)c2ncn(C(C)C)c2n1 [seliciclib]
- BFU-E growth, of the controls (BFU-E growth): less than 50%
- embryos with absence of swimming activity, lack of heartbeat and tail blood flow (zebrafish embryos/larvae): 57%
- larvae with curved body (zebrafish embryos/larvae): 50%
- larvae with edema (both mild and severe) (zebrafish embryos/larvae): 82%
